Results taken from US10632105B2, “Pharmacological stimulation to facilitate and restore standing and walking functions in spinal cord motor disorders” (ECOLE POLYTECHNIQUE FEDERALE DE LAUSANNE (EPFL), priority 2013, dated 2020).
“Also recorded” adds a separate entry of the source.

Legend:
[1] = 8-OHDPAT in combination with α2c stimulation and/or α2a blocking, locomotion; assay type: in vivo; settings: 8-OHDPAT in combination with the α2c stimulation or the α2a blocking or both
spinal rats = assay: Stepping patterns enabled by EES in spinal rats (complete T7 transection, bipedal treadmill); assay type: in vivo, rat; settings: for locomotion / stepping enabled by EES: treadmill 13 cm/s, clonidine 0.4-0.5 mg/kg, BRL-44408 given 5 min before clonidine in the combination
Experimental: Link R E, Desai K, Hein L, Stevens M E, Chruscinski A, Bernstein D, Barsh G S, Kobilka B K. Science. 1996 Aug. 9; 273(5276):803-5).
All procedures have been described in detail previously (see above, Courtine et al., 2009). Briefly, under general anesthesia and aseptic conditions, a partial laminectomy was performed over spinal segments L2 and S1. Teflon-coated stainless-steel wires (AS632; Cooner Wire) were passed under the spinous processes and above the dura mater of the remaining vertebrae between the partial laminectomy sites.
Bipolar intramuscular EMG electrodes using the same wire type as above were inserted bilaterally in the midbelly of the tibialis anterior (TA), midbelly of the vastus lateralis (VL), distal deep compartment of the semitendinosus (St), and medial deep region of the medial gastrocnemius (MG) muscles. All electrode wires were connected to a percutaneous amphenol connector cemented to the rat skull. In the same surgical intervention, the spinal cord was transected completely at a midthoracic level (T7) (Courtine et al., 2009).
All experimental testing followed the same protocol.
In KO mice experiments, only clonidine was injected intraperitoneally.
Three-dimensional video recordings (200 Hz) were made using the motion capture system VICON. Eight infrared television cameras (200 Hz) were used to track the motion of reflective markers attached bilaterally at the iliac crest, greater trochanter, lateral condyle, lateral malleolus, distal end of the fifth metatarsal [metatarsophalangeal joint (MTP)], and tip of the toe (FIG. 1A). Nexus (Vicon) was used to obtain 3-D coordinates of the markers. The body was modeled as an interconnected chain of rigid segments, and joint angles were generated accordingly.
Moments and ground reaction forces in the vertical, antero-posterior, and mediolateral directions were monitored using a biomechanical force plate (2 kHz; HE6X6; AMTI) located below the treadmill belt (FIG. 1A). Vicon BodyBuilder (Vicon) was used to compute the displacements of the center of foot pressures.
EMG signals (2 kHz) were amplified, filtered (10-1000 Hz bandpass), stored, and analyzed off-line to compute the amplitude, duration, and timing of individual bursts (Courtine et al., 2009).
Ten successive step cycles were extracted for both the left and right hindlimbs from a continuous sequence of stepping on the treadmill for each animal under each condition. When no stepping movements were observed, a 10 s period was recorded and analyzed. A total of 129 parameters quantifying gait, kinematics, kinetics, and EMG features were computed for each limb and gait cycle according to methods described in detail previously (Kinematic and EMG determinants in quadrupedal locomotion of a non-human primate (Rhesus). Courtine G, Roy R R, Hodgson J, McKay H, Raven J, Zhong H, Yang H, Tuszynski M H, Edgerton V R. J Neurophysiol. 2005 June; 93(6):3127-45; Recovery of supraspinal control of stepping via indirect propriospinal relay connections after spinal cord injury. Courtine G, Song B, Roy R R, Zhong H, Herrmann J E, Ao Y, Qi J, Edgerton V R, Sofroniew M V. Nat Med. 2008 January; 14(1):69-74; Transformation of nonfunctional spinal circuits into functional states after the loss of brain input. Courtine G, Gerasimenko Y, van den Brand R, Yew A, Musienko P, Zhong H, Song B, Ao Y, Ichiyama R M, Lavrov I, Roy R R, Sofroniew M V, Edgerton V R. Nat Neurosci. 2009 October; 12(10): 1333-42).
These parameters provided a holistic quantification of locomotor patterns ranging from general features of gait to fine details of limb motions and coordination. To allow direct comparisons between the different experimental conditions, all computed variables were normalized to those measured before drug injection (i.e., during locomotion facilitated by dual-site EES alone).
All data are reported as mean values±SEM. Repeated-measures ANOVAs were used to test differences between locomotor parameters recorded before and after drug injections […]

[2] = test system: cats with a complete spinal cord injury; settings: spinal / spinalized cats, complete SCI; cited from earlier work
rats with complete SCI = rats with complete SCI (Musienko et al. 2011); cited from earlier work
α2c KO mice = settings: spinal α2c KO mice, EES, clonidine i.p.
Experimental: (§1) The experiments in rats were conducted on adult female Sprague Dawley (300 g body weight). Functional testings in mice were carried out in α2a and α2c knockout animals aged 3-5 months, from both gender, obtained from L. Hein (University of Freiburg, Germany). The generation of the mouse lines lacking α2-adrenoreceptor subtypes has been previously described in detail (Abnormal regulation of the sympathetic nervous system in alpha2A-adrenergic receptor knockout mice. Altman J D, Trendelenburg A U, MacMillan L, Bernstein D, Limbird L, Starke K, Kobilka B K, Hein L. Mol Pharmacol. 1999 July; 56(1):154-61; Targeted inactivation of the gene encoding the mouse alpha 2c-adrenoceptor homolog. Link R E, Stevens M S, Kulatunga M, Scheinin M, Barsh G S, Kobilka B K. Mol Pharmacol. 1995 July; 48(1):48-55; Cardiovascular regulation in mice lacking alpha2-adrenergic receptor subtypes b and c. Link R E, Desai K, Hein L, Stevens M E, Chruscinski A, Bernstein D, Barsh G S, Kobilka B K. Science. 1996 Aug. 9; 273(5276):803-5). To investigate the spinal distribution of the α2 subtypes, we used BAC transgenic mice expressing the reporter protein GFP upstream the coding sequence of the α2a or α2c receptor subtype (strains 014248-UCD and 030098-UCD MMRRC, USA). All procedures were approved by the Veterinary Office of the Canton of Vaud, Switzerland. Animals were housed individually on a 12 h light/dark cycle, with access to food and water ad libitum.
(§2) All tested animals were allowed to recover for 2-5 weeks after lesion to regain stable levels of excitability in the spinal networks to facilitate locomotion via EES (Epidural stimulation induced modulation of spinal locomotor networks in adult spinal rats. Lavrov I, Dy C J, Fong A J, Gerasimenko Y, Courtine G, Zhong H, Roy R R, Edgerton V R. J Neurosci. 2008). An upper body harness was used to position the rats over a treadmill belt and to partially support their body weight during bipedal locomotion (FIG. 1A). An automated, servocontrolled body weight support system (Robomedica) measured and provided the optimal amount of body weight support that each rat needed to step. To facilitate locomotion via EES, monopolar rectangular pulses (0.2 ms duration) were delivered at 40 Hz using two constant-current stimulators (AM Systems) connected to the electrodes positioned at L2 and S1.

α2a KO mice = settings: spinal α2a KO mice, EES, clonidine i.p.
Experimental: as §1, §2

[3] = test system: humans with a severe spinal cord injury; settings: cited from earlier work
[4] = 5 weeks after lesion, with EES, i.p., BRL-44408 4-5 mg/kg
[5] = 5 weeks after lesion, with EES, i.p., BRL-44408 4-5 mg/kg, clonidine 0.4 mg/kg
[6] = 2 weeks after lesion, 200 umol/kg, together with EES

Q: For `CCCN(CCC)C1CCc2cccc(O)c2C1` (centres unmarked) [8-OHDPAT], which locomotion [1] is on record?
A: The locomotion was “further facilitation of locomotion”.

Q: Which “locomotion / stepping enabled by EES” value (spinal rats; [4]) does the source give for `CC1c2ccccc2CN1CC1=NCCN1` (centres unmarked) [BRL-44408, 2-[(4,5-Dihydro-1H-imidazol-2-yl)methyl]-2,3-dihydro-1-methyl-1H-isoindole] here?
A: The value was “improved locomotion; also recorded: moderately improves locomotion”.

Q: What about the paw dragging (spinal rats; [5]) of the same molecule?
A: The paw dragging was “reduced paw dragging”.

Q: What about the step height (spinal rats; [5]) of the same molecule?
A: Its step height is “substantially improved the step height”.

Q: Which locomotion [2] does the source give for `Clc1cccc(Cl)c1N=C1NCCN1` [clonidine] here?
A: Its locomotion is “marked facilitation of locomotion”.

Q: What about the stepping (rats with complete SCI) of the same molecule?
A: The stepping was “abolished stepping”.

Q: And the “locomotion / stepping enabled by EES” value (spinal rats; [4])?
A: Its value is “abolished the stepping enabled by EES”.

Q: What about the locomotor abilities (α2c KO mice) of the same molecule?
A: The locomotor abilities was “significant blocking of the locomotor abilities”.

Q: What about the locomotor function (α2a KO mice) of the same molecule?
A: Its locomotor function is “triggered a facilitation of the locomotor function”.

Q: What about the locomotor stability (α2a KO mice) of the same molecule?
A: Its locomotor stability is “improvement of locomotor stability”.

Q: And the “movement magnitudes of the hindlimb joints” value (α2a KO mice)?
A: Its value is “increase of the movement magnitudes of the hindlimb joints”.

Q: And the locomotion ([3]; human, clonidine injections (Dietz et al. 1995))?
A: The locomotion was “dysfacilitated locomotion”.

Q: And the “locomotor EMG activity” value ([3]; humans with a severe spinal cord injury, low clonidine dosages (Dietz et al., 1995))?
A: Its value is “suppress or markedly reduce locomotor EMG activity”.

Q: With `NC1=N[C@@H](Cc2c(F)cccc2F)CO1` [formula (I)] as the molecule, how does the locomotion (spinal rats; 2 weeks after lesion, 200 umol/kg, effect exclusively when applied together with spinal cord stimulation (EES)) read?
A: Its locomotion is “significantly improved locomotion”.

Q: And the limb amplitude (spinal rats; [6])?
A: The limb amplitude was “increased the limb amplitude”.

Q: And the paw dragging (spinal rats; [6])?
A: The paw dragging was “reduced the paw dragging”.

Q: For `Clc1ccc2nsnc2c1NC1=NCCN1` [tizanidine], which locomotion [2] is on record?
A: The locomotion was “facilitated expression of locomotion”.
